Measurements from US20240002429A1, “PRODRUG OF 5a-HYDROXY-6ß-[2-(1H-IMIDAZOL-4-YL)ETHYLAMINO]CHOLESTAN-3ß-OL AND PHARMACEUTICAL COMPOSITIONS COMPRISING SAME FOR USE IN THE TREATMENT OF CANCER” (priority 2020, published 2024).

Assays:
4T1 cells [1] = test: Cytotoxicity on 4T1 cells, CellTox Green Cytotoxicity Assay; assay type: cell-based, murine; conditions: Mus musculus
Procedure: (§1) The cellular viability tests were carried out on murine mammary tumor 4T1 cells characterized as negative triples (HER2−, ER−, PR−).
(§2) For this experiment, a cell culture medium was prepared. The culture medium consists of Dulbecco's Modified Eagle Medium (DMEM, marketed by Westburg under the reference LO BE12-604F), comprising 4.5 g/L glucose with L-glutamine, to which 10% of fetal calf serum (FCS) and 50 U/mL of penicillin/streptomycin are added. The 4T1 cells are introduced into this culture medium.
(§3) 96-well plates were seeded with 2000 4T1 cells per well. After 72 hours (h) of culture in normal conditions, i.e. in an incubator at a temperature of 37° C. at 5% CO2, the 4T1 cells are treated for 48 h with DX101, DX107, DX113, DX117, DX119, DX121 or DX131 at 100 nM, 1 μM, 2.5 μM and 10 μM. A control condition (CTL) is also carried out in parallel using the protocol described above but without treatment with the molecules DX101, DX107, DX113, DX117, DX119, DX121, DX131 or DX133.
For the third method, the percentage viability is determined using the kit CellTox Green Cytotoxicity Assay (Promega). This assay measures cell death via a change in membrane integrity. […] As a result, the higher the fluorescence in the wells, the greater is the cell death. After 48 h of treatment, the cells are incubated for a minimum of 15 minutes in the presence of the Celltox green reagent at room temperature and the fluorescence is read at […]. The percentage cell death is determined using the control 100% of cell death (carried out for untreated cells incubated in the presence of the lysis solution for 30 minutes at 37° C. before adding the Celltox green reagent), and the cellular viability in each well is then deduced from this percentage. IC50 is then determined as explained above.

4T1 cells [2] = test: Cytotoxicity on 4T1 cells, MTT; assay type: cell-based, murine; conditions: Mus musculus
Procedure: as §1, §2, §3
(§4) Cellular viability is measured by three different methods. For the first method, MTT labeling is carried out at 48 hours. This test is based on the use of the tetrazolium salt MTT (3-(4,5-dimethylthiazol-2-yl)-2,5-diphenyltetrazolium bromide). The tetrazolium is reduced by mitochondrial succinate dehydrogenase of active living cells, to formazan, a precipitate of a violet color. The quantity of precipitate formed is proportional to the quantity of living cells but also to the metabolic activity of each cell. […] After 48 hours, the medium is aspirated, and the cells are incubated with MTT (0.5 mg/ml in culture medium) for about 3 hours. The MTT solution is aspirated and the violet crystals are dissolved in dimethylsulfoxide (DMSO). The OD (optical density) is measured at 550 nm. The percentage viability is then determined in each well relative to the CTL and the IC50 (concentration for which there are still 50% of living cells) is determined for each molecule with Prism software using the nonlinear regression straight line (log(inhibitor) vs. Response).

[3] = test system: BT-474 human mammary tumor cells; test: Cytotoxicity on BT-474 cells, LDH; assay type: cell-based; conditions: for Mean LogIC50 (±SEM): log of IC50 in μM; for IC50: Homo sapiens
Procedure: (§5) For the second method, the percentage viability is determined using assay of the activity of the enzyme LDH (lactate dehydrogenase) in the cellular supernatants using the kit non radioactive cytotoxicity assay kit (Promega). LDH is an enzyme released in the supernatant of dead cells. The higher the LDH activity in the supernatant, the greater is the cell death. In this enzyme test, the LDH released converts a violet tetrazolium salt to formazan, of red color, absorbing at 490 nm. The intensity of the red color is proportional to the number of dead cells. After 48 h of treatment, the supernatants are transferred to a new 96-well plate and are incubated for 30 minutes in the presence of the substrate mix at room temperature. The reaction is stopped using the stop buffer and the absorbance is determined at 490 nm. The percentage cell death is determined here using a control 100% of maximum activity of LDH (carried out with untreated cells incubated in the presence of the lysis solution for 45 minutes at 37° C. just before adding the substrate mix), and the cellular viability in each well is then deduced from this percentage. IC50 is then determined as explained in the preceding paragraph.
(§6) The cellular viability tests were also carried out on BT-474 human mammary tumor cells (characterized as being positive triples HER2+, ER+, PR+). The BT-474 cells are in a cell culture medium identical to the preceding example and are seeded in 24-well plates at 70 000 cells per well, for determination of cellular viability using trypan blue, or in 96-well plates at 13 000 cells per well for determination of cellular viability using the MTT or LDH assay. After 96 hours (h) of culture in normal conditions, i.e. in an incubator at a temperature of 37° C. at 5% CO2, the BT-474 cells are treated for 48 h with DX101, DX107, and DX113 at 100 nM, 1 μM, 2.5 μM and 10 μM. A control is also carried out using the protocol described above but without treatment with the molecules DX101, DX107, DX113, DX117, DX119, DX121 or DX131.
(§7) After trypsin digestion for 10 minutes at 37° C., cell survival was quantified, also by a trypan blue assay with automatic counting with the Biorad TC20 equipment (TC20™ Automated Cell Counter). The trypan blue assay is based on the cell membrane integrity, which is broken in the dead cells. Trypan blue stains the dead cells blue. The Biorad TC20 cell counter counts the proportion of blue cells and non-blue cells, relative to the cell percentages. The percentage viability is then determined in each well relative to the untreated cells and the IC50 is determined as explained in the preceding example. The percentage viability of the BT-474 cells was determined using the MTT and LDH assay, carried out as described in the preceding example.

[4] = test system: BT-474 human mammary tumor cells; test: Cytotoxicity on BT-474 cells, MTT; assay type: cell-based; conditions: for Mean LogIC50 (±SEM): log of IC50 in μM; for IC50: Homo sapiens
Procedure: as §4, §6, §7

4T1 cells [5] = test: Cytotoxicity on 4T1 cells, LDH; assay type: cell-based, murine; conditions: Mus musculus
Procedure: as §1, §2, §3, §5

[6] = target: T1, cholesterol epoxide hydrolase (ChEH) (Homo sapiens, UniProt Q15125); test: Activity of cholesterol epoxide hydrolase (ChEH) in MCF-7 cells, [14C]5,6α-EC metabolization by TLC; assay type: cell-based; conditions: MCF-7, 1 μM, 24 h, [14C]5,6α-EC 0.6 μM
T1 construct: endogenous in cells; host or cells: MCF-7
T1 sequence (Q15125 whole entry): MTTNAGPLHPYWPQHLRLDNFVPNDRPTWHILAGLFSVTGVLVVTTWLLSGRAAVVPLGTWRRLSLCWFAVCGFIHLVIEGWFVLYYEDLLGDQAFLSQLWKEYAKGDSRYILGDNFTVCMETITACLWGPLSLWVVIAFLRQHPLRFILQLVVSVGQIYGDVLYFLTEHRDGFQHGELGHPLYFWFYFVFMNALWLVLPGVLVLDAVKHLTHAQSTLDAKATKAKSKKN
Excerpt: The compounds 5,6α-epoxycholesterol (5,6α-EC) and 5,6β-epoxycholesterol (5,6β-EC) are oxysterols involved in the anticancer pharmacology of tamoxifen, a widely used antitumor drug. They are both metabolized in cholestan-3β,5α,6β-triol (CT) by the enzyme cholesterol-5,6-epoxide hydrolase (ChEH), and CT is metabolized by the enzyme HSD11B2 (11β-hydroxysteroid dehydrogenase 2) to 6-oxo-cholestan-3β,5α-diol (OCDO), an oncosterone tumor promoter.
MCF-7 cells are in a cell culture medium identical to example 20 and are seeded in 6-well plates at 150000 cells per well with 3 wells per treatment condition. 24 h after seeding, the MCF-7 cells are treated with [^14C]5,6α-EC (stock solution 1000×: 0.6 mM; 20 μCi/μmol; final concentration 0.6 μM) alone or in combination with tamoxifen (tam). Tamoxifen is used as positive control of the study compounds. The treatment with the compound according to the invention is carried out at a concentration of 1 μM.
After 24 hours of treatment, the media are collected and lipid extracts are prepared from the cell pellets by extraction with 100 μL of chloroform, 400 μL of methanol and 300 μL of water. The lipid extracts are analyzed by thin-layer chromatography (TLC) using ethyl acetate (EtOAc) as eluent. The analysis is carried out using a plate reader and then by autoradiography.

[7] = 4T1, 48 h, read-out: Mean LogIC50 (±SEM) (converted)

Row | Compound | IC50 (4T1 cells [1]; 4T1, Green Cytotoxicity Assay, 48 h, log of IC50 in μM, read-out: Mean LogIC50 (±SEM) (converted)) [µM] | IC50 (4T1 cells [1]; 4T1, Green Cytotoxicity Assay, 48 h, read-out: IC50) [µM] | IC50 (4T1 cells [2]; 4T1, MTT, 48 h, log of IC50 in μM, read-out: Mean LogIC50 (±SEM) (converted)) [µM] | IC50 (4T1 cells [2]; 4T1, MTT, 48 h, read-out: IC50) [µM] | Mean LogIC50 (±SEM) ([3]; BT-474, LDH, 48 h) | IC50 ([3]; BT-474, LDH, 48 h, read-out: IC50) [µM] | Mean LogIC50 (±SEM) ([4]; BT-474, MTT, 48 h) | IC50 ([4]; BT-474, MTT, 48 h, read-out: IC50) [µM] | IC50 (4T1 cells [5]; 4T1, LDH, 48 h, log of IC50 in μM, read-out: Mean LogIC50 (±SEM) (converted)) [µM] | IC50 (4T1 cells [5]; 4T1, LDH, 48 h, read-out: IC50) [µM] | inhibition of ChEH activity [6] | IC50 (4T1 cells [1]; 4T1, 48 h) [µM] | IC50 (4T1 cells [1]; [7]) [µM] | IC50 (4T1 cells [2]; 4T1, 48 h) [µM] | IC50 (4T1 cells [2]; [7]) [µM] | IC50 ([3]; BT-474, 48 h) [µM] | IC50 ([4]; BT-474, 48 h) [µM] | IC50 (4T1 cells [5]; 4T1, 48 h) [µM] | IC50 (4T1 cells [5]; [7]) [µM]
1 | CCCCOC(=O)O[C@H]1CC[C@]2(C)[C@H]3CC[C@]4(C)[C@@H]([C@H](C)CCCC(C)C)CC[C@H]4[C@@H]3C[C@@H](NCCc3c[nH]cn3)[C@@]2(O)C1 [DX119, 5α-hydroxy-6β-[2-(1H-imidazol-4-yl)ethylamino]cholestan-3β-yl butyl carbonate] | 3.63 | 3.67 | 9.33 | 9.23 | 1.41 ± 0.01 | 25.4 | 1.33 ± 0.06 | 14.5 | 3.09 | 3.12 | – | – | – | – | – | – | – | – | –
2 | CC/C(=C(\c1ccccc1)c1ccc(OCCN(C)C)cc1)c1ccccc1 [tamoxifen] | – | – | – | – | – | – | – | – | – | – | total inhibition | – | – | – | – | – | – | – | –
3 | CCN(CC)C(=O)O[C@H]1CC[C@]2(C)C3CC[C@@]4(C)C(CC[C@@H]4C(C)CCCC(C)C)C3C[C@@H](NCCc3c[nH]cn3)[C@@]2(O)C1 (stereo partly drawn) [DX131, 5α-hydroxy-6β-[2-(1H-imidazol-4-yl)ethylamino]cholestan-3β-yl-diethyl carbamate] | – | – | – | – | 1.45 ± 0.08 | – | 1.08 ± 0.08 | – | – | – | – | 1.81 | 1.7 | 25.7 | 25.7 | 28.2 | 12 | 6.76 | 6.76
